In patent US7163711B2, “Crystalline α-D-glucosyl α-D-galactoside, saccharide composition comprising the same, process for producing the same, and uses thereof” (Kabushiki Kaisha Hayashibara Seibutsu Kagaku Kenkyujo, priority 2002, dated 2007):

Assays:
Format in all cases: physicochemical
[1] = Moisture absorption test on amorphous α-D-glucosyl α-D-galactoside; conditions: 25° C.; for Diffraction spectrum: powdery X-ray diffraction
Experimental: The crystalline powder of α-D-glucosyl α-D-galactoside obtained in Experiment 3 was examined for crystallinity by powdery X-ray diffraction analysis by using “GEIGERFLEX RAD-IIB™”, an X-ray diffraction analyzer using Cuk α ray commercialized by Rigaku Corporation, Tokyo, Japan, to obtain a spectrum as shown in FIG. 3 having peaks with diffraction angles (2θ) of at least 13.4°, 17.4°, 19.7°, and 22.3°. Crystallinity of the crystallized powder was calculated to be about 72.5% by using “Program for Crystallinity Analysis by Ruland method”, a computer program installed in the analyzer.
(§1) A half gram aliquots of the crystalline powder of α-D-glucosyl α-D-galactoside obtained in Experiment 3 were placed in aluminum weighing cans, which had been precisely weighed in advance, and each weighing can was weighed. The weight of each weighing can was subtracted from the total weight to calculate the starting weight of the crystalline powder of α-D-glucosyl α-D-galactoside. Each weighing can with the crystalline powder of α-D-glucosyl α-D-galactoside was placed in a glass desiccator which the relative humidity was controlled to a level of 33–99% in advance, and stored at 25° C. for one to seven days while keeping at the desired humidity. After the moisture absorption test, each weighing can had been precisely weighted and calculated for increasing weight to obtain a moisture absorption level (%). In the test, the crystalline powder was macroscopically observed.
The crystalline powder of α-D-glucosyl α-D-galactoside obtained in Experiment 3 was dissolved in water to obtain an aqueous solution with a concentration of 30% (w/w). The resultant aqueous solution was frozen and dried into an amorphous powder of α-D-glucosyl α-D-galactoside. Similar as in Experiment 10, the obtained amorphous powder was placed in aluminum weighing cans, and the cans were placed in a glass desiccator which the relative humidity was controlled to a level of 43–90% in advance, and stored at 25° C. for one to seven days while keeping at the desired humidity. After the moisture absorption test, moisture absorption level (%) was calculated similarly as in Experiment 10. In the test, the appearance of each powder was macroscopically observed. Samples after a storage for seven days were confirmed for their appearance by a powdery X-ray diffraction analysis in Experiment 4, and samples with crystals were examined for their crystallinity.

[2] = Saturated concentration for water; conditions: shaken 48 hours, d.s.b.
Experimental: A surplus volume of the crystalline powder of α-D-glucosyl α-D-galactoside obtained in Experiment 3 was added to 10 ml of distilled water, shaken at 25° C. or 40° C. for 48 hours, and filtrated to collect a crystalline powder, which is more than the solubility, by using a 0.45 μm filter, followed by collecting two filtrates (saturated solutions). Moisture content of the filtrates was measured by using a desiccating agent method described in “Standard Methods of Analysis in Food Safety Regulation, Chemistry” published by Japan Food Hygiene Association under the editorship of Ministry of Health, Labor and Welfare, 1991, to examine a saturated concentration of α-D-glucosyl α-D-galactoside.

[3] = Moisture absorption test on crystalline α-D-glucosyl α-D-galactoside; conditions: 25° C.
Excerpt: as §1

[4] = relative humidity 43%, storage for one day
[5] = relative humidity 43%, storage for seven days
[6] = relative humidity 53%, storage for one day
[7] = relative humidity 53%, storage for seven days
[8] = relative humidity 60%, storage for one day
[9] = relative humidity 60%, storage for seven days
[10] = relative humidity 90%, storage for one day
[11] = relative humidity 90%, storage for seven days
[12] = relative humidity 33%, storage one day
[13] = relative humidity 33%, storage seven days
[14] = relative humidity 33%, storage three days
[15] = relative humidity 33%, storage two days
[16] = relative humidity 43%, storage one day
[17] = relative humidity 43%, storage seven days
[18] = relative humidity 43%, storage three days
[19] = relative humidity 43%, storage two days
[20] = relative humidity 53%, storage one day
[21] = relative humidity 53%, storage seven days
[22] = relative humidity 53%, storage three days
[23] = relative humidity 53%, storage two days
[24] = relative humidity 60%, storage one day
[25] = relative humidity 60%, storage seven days
[26] = relative humidity 60%, storage three days
[27] = relative humidity 60%, storage two days
[28] = relative humidity 75%, storage one day
[29] = relative humidity 75%, storage seven days
[30] = relative humidity 75%, storage three days
[31] = relative humidity 75%, storage two days
[32] = relative humidity 84%, storage one day
[33] = relative humidity 84%, storage seven days
[34] = relative humidity 84%, storage three days
[35] = relative humidity 84%, storage two days
[36] = relative humidity 90%, storage one day
[37] = relative humidity 90%, storage seven days
[38] = relative humidity 90%, storage three days
[39] = relative humidity 90%, storage two days

SMILES: OC[C@H]1O[C@H](O[C@H]2O[C@H](CO)[C@@H](O)[C@H](O)[C@H]2O)[C@H](O)[C@@H](O)[C@H]1O [amorphous α-D-glucosyl α-D-galactoside, α-D-glucosyl α-D-galactoside]
- A(%)* Moisture absorption level [1, 4]: 4.5%
- Appearance (macroscopically observed) [1, 4]: Solidified
- A(%)* Moisture absorption level [1, 5]: 6.3%
- Appearance (macroscopically observed) [1, 5]: Solidified
- Diffraction spectrum [1, 5]: Amorphous
- A(%)* Moisture absorption level [1, 6]: 3.5%
- Appearance (macroscopically observed) [1, 6]: Wet on the surface
- A(%)* Moisture absorption level [1, 7]: 1.8%
- Appearance (macroscopically observed) [1, 7]: Hardened
- Crystallinity [1, 7]: 67%
- Diffraction spectrum [1, 7]: Crystal monohydrate
- A(%)* Moisture absorption level [1, 8]: 3.1%
- Appearance (macroscopically observed) [1, 8]: Wet on the surface
- A(%)* Moisture absorption level [1, 9]: 2.0%
- Appearance (macroscopically observed) [1, 9]: Hardened
- Crystallinity [1, 9]: 71%
- Diffraction spectrum [1, 9]: Crystal monohydrate
- A(%)* Moisture absorption level [1, 10]: 13.2%
- Appearance (macroscopically observed) [1, 10]: Partial deliquescence
- A(%)* Moisture absorption level [1, 11]: 36.2%
- Appearance (macroscopically observed) [1, 11]: Deliquescence
- moisture absorption (in words) ([1]; relative humidity of 43–90%, one to seven days): remarkably absorbed moisture

SMILES: OC[C@H]1O[C@H](O[C@H]2O[C@H](CO)[C@@H](O)[C@H](O)[C@H]2O)[C@H](O)[C@@H](O)[C@H]1O [crystalline α-D-glucosyl α-D-galactoside, α-D-glucosyl α-D-galactoside]
- saturated concentration in water ([2]; 25° C.): 68.9 % (w/w)
- saturated concentration in water ([2]; 40° C.): 71.8 % (w/w)
- A(%) Moisture absorption level [3, 12]: 0.0%
- Appearance [3, 12]: Unchanged
- A(%) Moisture absorption level [3, 13]: 0.0%
- Appearance [3, 13]: Unchanged
- A(%) Moisture absorption level [3, 14]: 0.0%
- Appearance [3, 14]: Unchanged
- A(%) Moisture absorption level [3, 15]: 0.0%
- Appearance [3, 15]: Unchanged
- A(%) Moisture absorption level [3, 16]: 0.0%
- Appearance [3, 16]: Unchanged
- A(%) Moisture absorption level [3, 17]: 0.0%
- Appearance [3, 17]: Unchanged
- A(%) Moisture absorption level [3, 18]: 0.0%
- Appearance [3, 18]: Unchanged
- A(%) Moisture absorption level [3, 19]: 0.0%
- Appearance [3, 19]: Unchanged
- A(%) Moisture absorption level [3, 20]: 0.0%
- Appearance [3, 20]: Unchanged
- A(%) Moisture absorption level [3, 21]: 0.1%
- Appearance [3, 21]: Unchanged
- A(%) Moisture absorption level [3, 22]: 0.0%
- Appearance [3, 22]: Unchanged
- A(%) Moisture absorption level [3, 23]: 0.0%
- Appearance [3, 23]: Unchanged
- A(%) Moisture absorption level [3, 24]: 0.1%
- Appearance [3, 24]: Unchanged
- A(%) Moisture absorption level [3, 25]: 0.2%
- Appearance [3, 25]: Unchanged
- A(%) Moisture absorption level [3, 26]: 0.1%
- Appearance [3, 26]: Unchanged
- A(%) Moisture absorption level [3, 27]: 0.1%
- Appearance [3, 27]: Unchanged
- A(%) Moisture absorption level [3, 28]: 0.1%
- Appearance [3, 28]: Unchanged
- A(%) Moisture absorption level [3, 29]: 0.2%
- Appearance [3, 29]: Unchanged
- A(%) Moisture absorption level [3, 30]: 0.1%
- Appearance [3, 30]: Unchanged
- A(%) Moisture absorption level [3, 31]: 0.1%
- Appearance [3, 31]: Unchanged
- A(%) Moisture absorption level [3, 32]: 3.2%
- Appearance [3, 32]: Hardened
- A(%) Moisture absorption level [3, 33]: 11.0%
- Appearance [3, 33]: Hardened
- A(%) Moisture absorption level [3, 34]: 6.1%
- Appearance [3, 34]: Hardened
- A(%) Moisture absorption level [3, 35]: 4.4%
- Appearance [3, 35]: Hardened
- A(%) Moisture absorption level [3, 36]: 6.9%
- Appearance [3, 36]: p.d.
- A(%) Moisture absorption level [3, 37]: 42.1%
- Appearance [3, 37]: Deliquescence
- A(%) Moisture absorption level [3, 38]: 19.2%
- Appearance [3, 38]: Deliquescence
- A(%) Moisture absorption level [3, 39]: 11.8%
- Appearance [3, 39]: p.d.
- moisture absorption (in words) ([3]; relative humidity of 75% or lower, one to seven days): did not absorb moisture
